Series [1] relates to mice. Description: Comparison of death rate, toxicity and acute general tolerability in mice by intravenous administration. It counts as in vivo. An excerpt:
(§1) Some experiments have been thus carried out for the comparison of the death rate, toxicity and acute general tolerability, between the product available in the market from Bristol Myers (BB-K8), amikacin produced according to the synthesis of the present invention and the potential impurities (BB K11, BB K29 and the diacylate with L-HABA at N-1 and N-3"), in mice by intravenous administration (caudal vein) to groups of 10 animals. The LD50 values have been calculated by the Finney-Probits method.

Assay in series [2]: as above
As to conditions: mouse, in vivo, iv, mice, intravenous (caudal vein), groups of 10 animals, Finney-Probits method. It counts as in vivo.
Source text: as §1

Each structure is given as a SMILES string.

In the case of `NCC[C@H](O)C(=O)N[C@@H]1C[C@H](N)[C@@H](O[C@H]2O[C@H](CN)[C@@H](O)[C@H](O)[C@H]2O)[C@H](O)[C@H]1O[C@H]1O[C@H](CO)[C@@H](O)[C@H](N)[C@H]1O` [Amikacin, 0-3-amino-3-desoxy-alpha-D-glucopyranosyl-(1→6)-0-[6--amino-6-desoxy-alpha-D-glucopyranosyl-(1→)]-N^1-(4-amino-2-hydroxy-1-oxybutyl)-2-desoxy-D-streptamine], the LD50 in series [1] (mice, intravenous (caudal vein), groups of 10 animals, Finney-Probits method) turned out to be 241 mg/kg. In series [2], `NCC[C@H](O)C(=O)N[C@@H]1C[C@H](N)[C@@H](O[C@H]2O[C@H](CN)[C@@H](O)[C@H](O)[C@H]2O)[C@H](O)[C@H]1O[C@H]1O[C@H](CO)[C@@H](O)[C@H](N)[C@H]1O` [BB-K8 Bristol] came in with an LD50 of 202 mg/kg. In the case of `NCC[C@H](O)C(=O)N[C@H]1C[C@@H](N)[C@H](O[C@H]2O[C@H](CO)[C@@H](O)[C@H](N)[C@H]2O)[C@@H](O)[C@@H]1O[C@H]1O[C@H](CN)[C@@H](O)[C@H](O)[C@H]1O` [BB-K29], the 50% lethal dose (LD50) in series [2] stood at 126 mg/kg. The “toxicity compared with amikacin (in words)” value in series [1] is recorded as “more toxic than amikacin”.

The compound `NCC[C@H](O)C(=O)N[C@@H]1[C@@H](O)[C@@H](O[C@@H]2[C@@H](O)[C@H](O[C@H]3O[C@H](CN)[C@@H](O)[C@H](O)[C@H]3O)[C@@H](N)C[C@H]2NC(=O)[C@@H](O)CCN)O[C@H](CO)[C@H]1O` [Diacylate (N-1 and N-3")] returned a median lethal dose (LD50) in series [2] of 268 mg/kg. Moreover, the “toxicity compared with BB-K29 (in words)” value in series [1] is reported as “lower”.

In the case of `NCC[C@H](O)C(=O)N[C@@H]1[C@@H](O)[C@@H](O[C@@H]2[C@@H](O)[C@H](O[C@H]3O[C@H](CN)[C@@H](O)[C@H](O)[C@H]3O)[C@@H](N)C[C@H]2N)O[C@H](CO)[C@H]1O` [BB-K11], the median lethal dose (LD50) in series [2] amounted to 356 mg/kg. Further, the “toxicity compared with BB-K29 (in words)” value in series [1] is reported as “lower”.

The LD50 is the dose at which mortality reaches 50%. Higher therefore signals lower toxicity.

The values above are taken from US5763587A, “Process for the synthesis of amikacin” (Gist Brocades Italy Spa, priority 1987, dated 1998).
